pIC50: −log10 of the molar value.

Assay [1] deals with T1, Pancreatic alpha-amylase (Sus scrofa, UniProt P00690).
T1 sequence (P00690 whole entry): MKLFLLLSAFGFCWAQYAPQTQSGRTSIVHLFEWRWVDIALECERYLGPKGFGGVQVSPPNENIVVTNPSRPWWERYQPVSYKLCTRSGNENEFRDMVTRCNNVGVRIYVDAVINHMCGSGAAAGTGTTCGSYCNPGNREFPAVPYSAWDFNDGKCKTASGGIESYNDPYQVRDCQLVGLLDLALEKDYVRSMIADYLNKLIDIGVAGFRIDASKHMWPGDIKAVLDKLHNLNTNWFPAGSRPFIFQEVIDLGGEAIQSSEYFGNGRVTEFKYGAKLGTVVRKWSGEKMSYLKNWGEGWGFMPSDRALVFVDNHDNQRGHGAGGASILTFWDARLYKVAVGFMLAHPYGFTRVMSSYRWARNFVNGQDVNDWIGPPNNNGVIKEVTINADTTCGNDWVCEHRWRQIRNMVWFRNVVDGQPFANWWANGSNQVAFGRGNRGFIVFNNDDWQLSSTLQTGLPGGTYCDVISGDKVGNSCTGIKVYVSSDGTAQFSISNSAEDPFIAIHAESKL
Description: Inhibition of porcine pancreatic alpha amylase using starch as substrate by Bernfeld method.

Assay [2] in a line: Inhibition of pancreatic glucosidase in Swiss mouse pancreatic extracts.
Assay [3] is described as follows: Inhibition of intestinal glucosidase in Swiss mouse intestinal extracts. To be noted: for pIC50: read-out: IC50.
Assay [4] deals with Lysosomal alpha-glucosidase (Mus musculus, UniProt P70699). Kind of assay: Inhibition of liver glucosidase in Swiss mouse liver extracts.
Sequence of Lysosomal alpha-glucosidase (P70699 whole entry): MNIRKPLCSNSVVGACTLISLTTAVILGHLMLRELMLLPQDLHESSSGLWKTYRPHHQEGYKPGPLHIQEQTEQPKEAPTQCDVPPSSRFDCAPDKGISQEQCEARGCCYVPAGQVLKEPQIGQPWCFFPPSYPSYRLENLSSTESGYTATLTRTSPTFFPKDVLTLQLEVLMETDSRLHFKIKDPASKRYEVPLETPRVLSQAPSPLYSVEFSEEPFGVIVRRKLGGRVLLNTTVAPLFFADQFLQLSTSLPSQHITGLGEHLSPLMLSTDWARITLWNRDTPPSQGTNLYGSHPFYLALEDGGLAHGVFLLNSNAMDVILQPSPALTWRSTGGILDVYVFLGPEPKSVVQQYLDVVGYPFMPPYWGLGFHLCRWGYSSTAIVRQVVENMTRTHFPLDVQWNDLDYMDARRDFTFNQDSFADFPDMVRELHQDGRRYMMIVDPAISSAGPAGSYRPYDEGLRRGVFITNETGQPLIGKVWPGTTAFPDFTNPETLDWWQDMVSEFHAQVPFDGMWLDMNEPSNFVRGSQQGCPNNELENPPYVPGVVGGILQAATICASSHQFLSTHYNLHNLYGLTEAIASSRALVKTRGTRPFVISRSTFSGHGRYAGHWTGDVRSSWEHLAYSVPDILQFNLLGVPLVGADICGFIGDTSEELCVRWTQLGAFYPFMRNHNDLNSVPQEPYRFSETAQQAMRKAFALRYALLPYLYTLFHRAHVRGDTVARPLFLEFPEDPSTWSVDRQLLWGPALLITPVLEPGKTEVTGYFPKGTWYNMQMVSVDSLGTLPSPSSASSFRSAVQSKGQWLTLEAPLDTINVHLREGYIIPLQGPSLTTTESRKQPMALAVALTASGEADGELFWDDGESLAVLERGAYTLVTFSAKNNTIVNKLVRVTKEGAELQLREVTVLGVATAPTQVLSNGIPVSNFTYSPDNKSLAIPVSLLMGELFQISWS

One may read the pIC50 as the negative decadic logarithm of the IC50, by convention in mol/L. Take `N#C/C=C1\C=C(c2ccc(F)cc2)N=C2Sc3ccccc3N21`: the pIC50 is 4.61 in assay [1], 4.76 in assay [2], 4.43 in assay [3] and 4.60 in assay [4].

As for `COc1ccc2c(c1)SC1=NC(c3ccccc3)=C/C(=C\C#N)N12`, the negative logarithm of the IC50 (pIC50) in assay [1] was 4.65; in assay [2], 4.53; in assay [3], 4.38; in assay [4], 4.60.

`COc1ccc2c(c1)SC1=NC(c3ccc(Br)cc3)=C/C(=C\C#N)N12`: the pIC50 in assay [1] was 4.76; in assay [2] it was 4.47; in assay [3] it was 4.52; in assay [4], 4.85.

As to `N#C/C=C1\C=C(c2ccccc2)N=C2Sc3ccccc3N21`, the pIC50 is 4.64 in assay [1], 4.67 in assay [2], 4.49 in assay [3] and 4.63 in assay [4].

Turning to `N#C/C=C1\C=C(c2ccc(Br)cc2)N=C2Sc3ccccc3N21`, the results for the negative-log IC50 (pIC50) in assay [1], in assay [2] and in assay [4] were 4.82, 4.64 and 4.55, respectively. The IC50 result in assay [3] is “Not Active”.

For `Cc1ccc(C2=C/C(=C\C#N)N3C(=N2)Sc2ccccc23)cc1`, the pIC50 in assay [1] is 4.63; in assay [2] it was 4.46; in assay [3], 4.44; in assay [4] it was 4.69.

As for `N#C/C=C1\C=C(c2ccc(Cl)cc2)N=C2Sc3ccccc3N21`, the pIC50 in assay [1] was 4.66; in assay [2], 4.76; in assay [3], 4.75; in assay [4], 4.66.

`COc1ccc2c(c1)SC1=NC(c3ccc(Cl)cc3)=C/C(=C\C#N)N12`: the pIC50 was 4.69 in assay [1], 4.68 in assay [2], 4.59 in assay [3] and 4.71 in assay [4].

On to `CCOc1ccc2c(c1)SC1=NC(c3ccccc3)=C/C(=C\C#N)N12`, for which the negative-log IC50 (pIC50) was 4.66 in assay [1], 4.34 in assay [2], 4.41 in assay [3] and 4.73 in assay [4].

Turning to `COc1ccc2c(c1)SC1=NC(c3ccc(F)cc3)=C/C(=C\C#N)N12`, the pIC50 in assay [1] was 4.69; in assay [2], 4.72; in assay [3] it was 4.52; in assay [4] it was 4.68.

For the compound `N#C/C=C1\C=C(c2ccc3ccccc3c2)N=C2Sc3ccccc3N21`, the pIC50 in assay [1] was 4.70; in assay [2], 4.64; in assay [3], 4.65; in assay [4], 4.67.

Consider `COc1ccc2c(c1)SC1=NC(c3ccc(C)cc3)=C/C(=C\C#N)N12`, for which the pIC50 in assay [1] was 4.71; in assay [2] it was 4.53; in assay [3], 4.56; in assay [4] it was 4.74.

For `COc1ccc2c(c1)SC1=NC(c3ccc4ccccc4c3)=C/C(=C\C#N)N12`, the pIC50 in assay [1] was 4.73; in assay [2] it was 4.52; in assay [3], 4.20; in assay [4] it was 4.80.

On to `C[C@H]1O[C@H](O[C@H]2[C@H](O)[C@@H](O)[C@@H](O[C@H]3[C@H](O)[C@@H](O)C(O)O[C@@H]3CO)O[C@@H]2CO)[C@H](O)[C@@H](O)[C@@H]1N[C@H]1C=C(CO)[C@@H](O)[C@H](O)[C@H]1O` (stereo not given in full) [ACARBOSE], for which the pIC50 in assay [2] and in assay [4] was less than 4.00 each time. Also, the IC50 result in assay [3] is “Not Active”.

These data come from ChEMBL document CHEMBL2203065, “Synthesis and glycosidase inhibitory activity of novel (2-phenyl-4H-benzopyrimedo[2,1-b]-thiazol-4-yliden)acetonitrile derivatives” (Bioorg Med Chem Lett, 2012).
